The subject of one series is HFD-fed mouse. Briefly: Fecal protein concentration-increasing test by single administration using HFD-fed mouse. The series is classed as in vivo. To be noted: 24 h, HFD-fed mice, vs vehicle group, read-out: Ratio for an increase of protein concentration in feces; for response vs control in vivo at 30 mg/kg: single oral dose 30 mg/kg. The source says: (Test Example 3): Fecal Protein Concentration-Increasing Test by Single Administration Using HFD-Fed Mouse
High fat diet-fed (HFD-fed) mice (D-12492 diet, male, ICR, 6 week old) were orally administered with a 0.5 W/V % methylcellulose suspension comprising each test compound (Compound administration group, 4 or 5 mice/group) or a 0.5 W/V % methylcellulose suspension (Compound non-administration group (Vehicle group), 5, 6, or 7 mice/group), and whole feces of the day were collected. Dried feces were dissolved into a 0.5N aqueous sodium hydroxide solution, followed by centrifugation at 3500 rpm. Then each protein concentration in the resulting supernatant was determined (Lowry method), and the ratio for an increase of protein concentration in feces was calculated by the following equation using the protein concentration in feces contained in 1 g of feces (mg/g feces). Ratio for an increase of protein concentration in feces−(average protein concentration in feces of Compound administration group)[…](average protein concentration in feces of Compound non-administration group)

A short description of series [1]: Rat pharmacokinetic (PK) test (plasma concentration after oral administration). The settings on record: male, SD, 100 mg/kg.
Experimental: Each test compound was suspended in a 0.5 W/V % methylcellulose 400 solution to prepare a suspension, and the resulting suspension was orally administered to a male SD rat of 7 to 8-week old (weight: 180 to 250 g). After 0.25, 0.5, 1, 2, 4, 8, and 24 hour(s) of the administration of each test compound, blood (EDTA-added blood) was collected from jugular vein under isoflurane inhalation anesthesia. […] To the resulting blood plasma was added acetonitrile, a mixed solvent of acetonitrile and water (1:1 (V/V)), or a mixed solvent of acetonitrile and 0.1 M hydrochloric acid (1:1 (V/V)), then the resulting mixture was mixed at 750 rpm for 3 minutes in a shaker, and subjected to centrifugal separation at 3700 rpm for 2 minutes in a centrifuge to remove proteins. The resulting sample was subjected to LC (liquid chromatography)/MS (mass spectrometry) measurement under the following measurement conditions.
Each compound concentration in blood plasma at each time of blood collection was calculated according to the internal standard method, and, area under the plasma concentration vs. time curve (AUCall (Area Under Curve)) was calculated according to the trapezoidal method.
The LC and MS systems used in the present test are as follows.
LC: LC20 or LC30 HPLC system manufactured by Shimadzu Corporation
Column: Phenomenex Kinetex C18 (50×2.1 mm, 2.6 μm)
Column temperature: 40° C.
Mobile phase A: aqueous solution with 0.1% formic acid, Mobile phase B: 50% acetonitrile/methanol solution with 0.1% formic acid
The test system of a further series is DIO mouse. Briefly: Anti-obesity effect test using DIO mouse. The series is classed as in vivo. To be noted: 336 h, DIO mice, vs vehicle group, read-out: Weight loss rate; for inhibition in vivo at 25 mg/kg: oral 25 mg/kg once daily for 2 weeks. The essentials: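 Male C57BL-DIO mice on D-12492 diet, 26 to 28-week old, 5 or 6 per group; compound dosed orally once daily for 2 weeks as 0.5 W/V % methylcellulose suspension, vehicle group on suspension alone. Weight loss rate (%) = (1 − mean final-day weight of treated group / mean final-day weight of vehicle group) × 100.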

Series [2] has as its target T1, Human recombinant enteropeptidase (Homo sapiens, UniProt P98073).
T1 construct: purchased BIO Vision Inc. 7529-50
Briefly: Human enteropeptidase inhibition test. The settings on record: 20 minutes after reaction start, read-out: Inhibition rate (enteropeptidase); for inhibition at 0.001 µM: compound concentration 1 nM; for inhibition at 0.01 µM: compound concentration 10 nM; for inhibition at 0.1 µM: compound concentration 100 nM. The format is biochemical. The essentials:
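Recombinant human enteropeptidase in 50 mM tricine pH 8.0, 0.01% Tween 20, 10 mM CaCl2 cleaving 1.5 μM 5FAM/CPQ2-quenched peptide substrate (stock solution concentration). Fluorescence (ex 485/em 535 nm) read 20 min after enzyme addition; % inhibition versus no-compound and no-enzyme controls.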

Series [3] has as its target T2, Human recombinant trypsin (Homo sapiens, UniProt P07477).
T2 construct: purchased Wako Pure Chemical Industries, Ltd. 206-17171
Briefly: Human trypsin inhibition test. The series is classed as biochemical. To be noted: 20 minutes after reaction start, read-out: Inhibition rate (trypsin); for inhibition at 0.001 µM: compound concentration 1 nM; for inhibition at 0.01 µM: compound concentration 10 nM; for inhibition at 0.1 µM: compound concentration 100 nM. In short, it runs like this:
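Trypsin diluted to 10 ng/mL in 0.1 M Tris-HCl pH8.0, 0.15 M NaCl, 10 mM CaCl2, 0.05% Brij35; substrate solution 40 μM Boc-Phe-Ser-Arg-MCA, compounds in 1% DMSO buffer. Fluorescence (ex 355/em 460 nm) read 20 min after enzyme addition; % inhibition versus no-compound and no-enzyme controls.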

Counter-ions that a name gives are not always drawn.

T1 sequence (P98073 whole entry): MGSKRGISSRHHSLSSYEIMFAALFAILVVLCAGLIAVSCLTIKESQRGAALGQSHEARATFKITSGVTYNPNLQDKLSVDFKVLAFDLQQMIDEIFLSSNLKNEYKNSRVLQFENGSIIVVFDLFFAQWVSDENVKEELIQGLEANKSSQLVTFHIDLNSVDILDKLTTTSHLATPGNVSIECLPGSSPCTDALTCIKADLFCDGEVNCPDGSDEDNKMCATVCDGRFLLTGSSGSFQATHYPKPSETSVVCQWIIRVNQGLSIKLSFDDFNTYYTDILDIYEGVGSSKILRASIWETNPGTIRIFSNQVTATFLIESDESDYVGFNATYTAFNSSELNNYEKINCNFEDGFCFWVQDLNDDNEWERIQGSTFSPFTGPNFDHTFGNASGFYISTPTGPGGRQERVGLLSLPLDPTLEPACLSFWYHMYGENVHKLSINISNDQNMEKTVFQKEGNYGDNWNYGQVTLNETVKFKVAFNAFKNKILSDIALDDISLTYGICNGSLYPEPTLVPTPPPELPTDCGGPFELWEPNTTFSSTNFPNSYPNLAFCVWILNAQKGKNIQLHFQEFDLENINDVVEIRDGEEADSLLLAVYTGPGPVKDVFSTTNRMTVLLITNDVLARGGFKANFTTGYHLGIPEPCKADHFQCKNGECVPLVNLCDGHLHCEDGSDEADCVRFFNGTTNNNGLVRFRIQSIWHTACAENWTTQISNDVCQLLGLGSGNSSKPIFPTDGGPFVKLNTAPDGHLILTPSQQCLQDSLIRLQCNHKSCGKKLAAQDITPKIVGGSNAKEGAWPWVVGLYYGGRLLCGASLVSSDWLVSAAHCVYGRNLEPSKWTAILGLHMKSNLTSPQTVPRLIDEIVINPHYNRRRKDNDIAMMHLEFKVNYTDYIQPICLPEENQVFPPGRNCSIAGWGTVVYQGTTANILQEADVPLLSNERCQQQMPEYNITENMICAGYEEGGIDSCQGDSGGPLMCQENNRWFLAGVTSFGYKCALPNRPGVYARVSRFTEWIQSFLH

Take `N=C(N)Nc1ccc(C(=O)Oc2ccc(CNS(=O)(=O)N(CCOCCN([C@@H](CC(=O)O)C(=O)O)S(=O)(=O)NCc3ccc(OC(=O)c4ccc(NC(=N)N)cc4)cc3)[C@@H](CC(=O)O)C(=O)O)cc2)cc1` [1-(b), (2S,2′S)-2,2′-((oxybis(ethane-2,1-diyl))bis((N-(4-((4-guanidinobenzoyl)oxy)benzyl)sulfamoyl)azanediyl))disuccinic acid]: the response vs control in vivo at 87 mg/kg in the series on HFD-fed mouse (single oral dose 87 mg/kg) was at least 130%. The compound further came in with an exposure (AUC) in series [1] of at most 100 ng·h/mL. Besides, the inhibition in vivo at 30 mg/kg with DIO mouse (oral 30 mg/kg once daily for 2 weeks) was at least 4%. Moreover, in series [2], the inhibition at 0.001 µM is at least 50%, the inhibition at 0.01 µM is at least 50% and the inhibition at 0.1 µM is at least 50%. Moreover, in series [3], the inhibition at 0.001 µM is at least 50%, the inhibition at 0.01 µM was at least 50% and the inhibition at 0.1 µM is at least 50%.
As for `N=C(N)Nc1ccc2c(c1)CCCOc1c(cccc1C(=O)N(CCOCCOCCN(C(=O)c1cccc3c1OCCCc1cc(NC(=N)N)ccc1C(=O)O3)[C@@H](CC(=O)O)C(=O)O)[C@@H](CC(=O)O)C(=O)O)OC2=O` [20-(b), (2S,13S)-3,12-bis(10-guanidino-13-oxo-6,7,8,13-tetrahydrodibenzo[b,f][1,4]dioxecin-4-carbonyl)-6,9-dioxa-3,12-diazatetradecane-1,2,13,14-tetracarboxylic acid trifluoroacetate], the response vs control in vivo at 30 mg/kg in the series on HFD-fed mouse was at least 130%. In the series on DIO mouse, the inhibition in vivo at 25 mg/kg is at least 4%. For the same compound, in series [2], the inhibition at 0.001 µM was at least 50%, the inhibition at 0.01 µM is at least 50% and the inhibition at 0.1 µM was at least 50%. In addition, in series [3], the inhibition at 0.001 µM is at least 50%, the inhibition at 0.01 µM is at least 50% and the inhibition at 0.1 µM is at least 50%.
As to `N=C(N)Nc1ccc2c(c1)CCCOc1c(cccc1C(=O)N(CCOCCOCCN(C(=O)c1cccc3c1OCCCc1cc(NC(=N)N)ccc1C(=O)O3)[C@H](CC(=O)O)C(=O)O)[C@H](CC(=O)O)C(=O)O)OC2=O` [21-(b), (2R,13R)-3,12-bis(10-guanidino-13-oxo-6,7,8,13-tetrahydrodibenzo[b,f][1,4]dioxecin-4-carbonyl)-6,9-dioxa-3,12-diazatetradecane-1,2,13,14-tetracarboxylic acid trifluoroacetate], the response vs control in vivo at 30 mg/kg in the series with HFD-fed mouse is at least 130%. Besides, the inhibition in vivo at 25 mg/kg with DIO mouse was at least 4%. Moreover, in series [2], the inhibition at 0.001 µM is at least 50%, the inhibition at 0.01 µM is at least 50% and the inhibition at 0.1 µM was at least 50%. In series [3], the inhibition at 0.01 µM was at least 50% and the inhibition at 0.1 µM is at least 50%.
In the case of `N=C(N)Nc1ccc2c(c1)CCCOc1c(cccc1C(=O)N(CCOCCOCCOCCN(C(=O)c1cccc3c1OCCCc1cc(NC(=N)N)ccc1C(=O)O3)[C@@H](CC(=O)O)C(=O)O)[C@@H](CC(=O)O)C(=O)O)OC2=O` [27-(b), (2S,165)-3,15-bis(10-guanidino-13-oxo-6,7,8,13-tetrahydrodibenzo[b,f][1,4]dioxecin-4-carbonyl)-6,9,12-trioxa-3,15-diazaheptadecane-1,2,16,17-tetracarboxylic acid], the response vs control in vivo at 50 mg/kg with HFD-fed mouse (single oral dose 50 mg/kg) is at least 130%. Besides, in the series on DIO mouse (oral 50 mg/kg once daily for 2 weeks), the inhibition in vivo at 50 mg/kg was at least 4%. In series [2], the inhibition at 0.001 µM is at least 50%, the inhibition at 0.01 µM is at least 50% and the inhibition at 0.1 µM is at least 50%. In series [3], the inhibition at 0.01 µM is at least 50% and the inhibition at 0.1 µM is at least 50%.

The values are drawn from patent publication US11465965B2, “Double-headed protease inhibitor” (UBE INDUSTRIES, LTD., priority 2017, dated 2022).
